Structures can show the parent of a compound that is named as a salt. Each block holds one compound with its values, some of them ahead of it.
Assays:
[1] = target: T1, recombinant hMAO-B (Homo sapiens, UniProt P27338); assay: hMAO-B activity assay (kynuramine, fluorimetric); format: biochemical; conditions: for SI (selectivity index): calculated as hMAO-A Ki/hMAO-B Ki; for Ki: kynuramine [S] = 10 µM, pH 7.4, 37 °C, mean ± S.D., read-out: hMAO-B Ki
T1 construct: purchased Fluka-Sigma-Aldrich s.r.l; (Italy); host or cells: Baculovirus infected BT1 cells
T1 sequence (P27338 1-520): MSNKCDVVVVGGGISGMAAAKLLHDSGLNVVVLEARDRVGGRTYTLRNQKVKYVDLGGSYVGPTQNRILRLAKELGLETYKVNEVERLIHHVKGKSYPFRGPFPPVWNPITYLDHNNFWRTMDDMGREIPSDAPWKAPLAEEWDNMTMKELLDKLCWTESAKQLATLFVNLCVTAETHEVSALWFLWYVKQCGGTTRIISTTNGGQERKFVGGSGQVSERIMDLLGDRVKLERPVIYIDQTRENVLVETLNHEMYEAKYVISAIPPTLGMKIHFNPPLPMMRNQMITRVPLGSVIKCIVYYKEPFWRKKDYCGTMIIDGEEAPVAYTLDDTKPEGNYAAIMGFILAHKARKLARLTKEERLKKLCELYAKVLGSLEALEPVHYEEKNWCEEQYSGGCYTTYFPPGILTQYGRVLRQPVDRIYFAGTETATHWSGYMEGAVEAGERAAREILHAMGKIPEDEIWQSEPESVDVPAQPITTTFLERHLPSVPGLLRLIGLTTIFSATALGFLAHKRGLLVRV
Procedure: (§1) Human recombinant hMAO-A and hMAO-B expressed in Baculovirus infected BT1 cells (5 mg/mL) and horseradish peroxidases were purchased from Fluka-Sigma-Aldrich s.r.l. (Italy). A Cary Eclipse fluorimeter (Varian Inc., Palo Alto, CA, USA) was used for fluorescence measurements. […] At first, the peroxidase-coupled continuous assay that detect the H2O2 generation rate was considered. It uses the Amplex Red reagent as the fluorogenic substrate for horseradish peroxidase.
(§2) By applying this method, hMAO activity assays were performed in K/Pi 0.1 M, EDTA 1 mM (total volume: 200 μL; pH 7.4, T = 37 °C), in the presence and in absence of various concentrations of the different compounds (0.2–20 μM and 2–50 μM in the case of hMAO–B and hMAO-A, respectively).
(§3) MAOs stock solutions were diluted with assay buffer in the presence or absence of the tested compound to obtain a final concentration of 0.005 mg/mL for MAO-A and 0.010 mg/mL for MAO-B; then, kynuramine (10–300 μM final concentration) was added to the assay solution. After 45–60 min of incubation at 37 °C, the reaction was stopped by the addition of 2 M NaOH (80 μL) and 480 μL of distilled water. Kynuramine deaminated by MAO spontaneously cyclizes to provide 4-hydroxyquinoline, the amount of which was determined by the fluorescence intensity of the peak of its emission spectra (λexc = 330 nm and λem 330–530 nm). Then, the rate of reaction was calculated using a specific calibration curve (in the presence of the same amount of the tested compound) built with the standard 4-hydroxyquinoline.
(§4) Under these experimental conditions, the Michaelis–Menten equation for rate of reaction, can be simplified as follows: V ≈ (Vmax/KM) [E]0[S]0 [49]. In the presence of an inhibitor, one or both the kinetic parameters, KM and Vmax, might be affected by its presence, depending on the inhibition mechanism. In particular, in the presence of a reversible inhibitor, both the kinetic parameters could be affected, and the apparent kinetic parameter would then become: KM I = KM,0 (1 + [I]/Ki)/(1 + [I]/(αKi)), and VmaxI = Vmax0/(1 + [I]/(αKi)), where α is the factor indicating how much the dissociation constant of the enzyme-substrate-I complex is different from that of the enzyme–I complex (also named Ki). Consequently, the ratio of the initial rate of reaction in the absence (Vo) and in the presence (VI) of the tested compound (Vo/VI) can be simplified to the ratio of (Vmax/KM)o/(Vmax/KM)I ≈ (1 + [I]/Ki).
(§5) To study the mechanism of inhibition, the steady-state kinetic parameters (Vmax and Km) of MAO-A and MAO-B were determined by performing experiments at different substrate concentrations and in the absence and presence of different concentrations of the tested compound. Vmax and Km were calculated by fitting the Michaelis–Menten equation to the experimental data (initial rate of reactions vs. substrate concentrations), with Sigma Plot software, version 9.0 (Jandel Scientific, San Rafael, CA, USA).

[2] = target: T2, recombinant hMAO-A (Homo sapiens, UniProt P21397); assay: hMAO-A activity assay (kynuramine, fluorimetric); format: biochemical; conditions: kynuramine [S] = 10 µM, pH 7.4, 37 °C; mean ± S.D.; read-out: hMAO-A Ki
T2 construct: purchased Fluka-Sigma-Aldrich s.r.l; (Italy); host or cells: Baculovirus infected BT1 cells
T2 sequence (P21397 1-527): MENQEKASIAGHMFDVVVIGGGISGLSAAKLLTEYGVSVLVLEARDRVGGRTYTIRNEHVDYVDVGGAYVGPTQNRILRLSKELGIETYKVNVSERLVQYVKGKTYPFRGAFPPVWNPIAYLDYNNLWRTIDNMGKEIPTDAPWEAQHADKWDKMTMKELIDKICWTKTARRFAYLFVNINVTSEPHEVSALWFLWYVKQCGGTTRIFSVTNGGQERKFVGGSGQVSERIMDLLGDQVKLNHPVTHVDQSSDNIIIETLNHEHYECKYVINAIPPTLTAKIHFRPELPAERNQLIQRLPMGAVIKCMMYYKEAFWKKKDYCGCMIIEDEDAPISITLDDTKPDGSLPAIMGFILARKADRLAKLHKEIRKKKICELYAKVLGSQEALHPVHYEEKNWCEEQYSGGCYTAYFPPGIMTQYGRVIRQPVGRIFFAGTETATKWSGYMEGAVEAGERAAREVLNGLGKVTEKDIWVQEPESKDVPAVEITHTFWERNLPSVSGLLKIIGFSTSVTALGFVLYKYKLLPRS
Procedure: as §1, §2, §3, §4, §5

[3] = system: Nrf2 nuclear translocation in SH-SY5Y cells; assay: Nrf2 nuclear translocation (Western blot of nuclear extracts); format: cell-based, human; conditions: 5 μM, 3 h
Text: In physiological conditions, the repressor Keap1 traps Nrf2 at the cytosolic level, preventing the activation of Nrf2 pathway. The disruption of Keap1–Nrf2 interaction allows for Nrf2 nuclear translocation, thus resulting in the transcriptional activation of its target cytoprotective genes. […] We and others have previously developed several compounds bearing caffeic and ferulic fragments able to activate Nrf2 in terms of the up-regulation of Nrf2 expression, translocation into the nucleus and induction of the Nrf2-dependent defensive genes, with (pro)electrophilic features emerging as key players. Herein, to analyse the effect of the new molecules on the Nrf2 downstream cascade, the ability of compounds 1–5 to increase Nrf2 nuclear translocation was preliminary evaluated as a pivotal step in Nrf2 signalling activation (Figure 6). Based on MAO-B inhibitory potency and cell toxicity assay, compounds were studied in SH-SY5Y human neuroblastoma cells at the concentration of 5 μM. Given the high structural analogy with our derivatives, we selected the well-known Nrf2 inducer CAPE [37, 38] as the reference compound, and verified its ability to induce Nrf2 nuclear translocation at different concentrations, ranging from 5 µM to 50 µM in our experimental model (Figure S6). Nrf2 nuclear content was assessed via Western blot analysis. […] Consistently, data from literature highlight discrepancies about pioglitazone-mediated Nrf2 activation, indicating its ability to activate Nrf2 in longer timeframes and different in vitro and in vivo experimental conditions. […] The preliminary docking performed on human Keap-1 confirms the excellent positioning of compound 2 within the BTB domain pocket, where cysteine 151 is located (see Figure S5). […] Particularly, all these new molecules hold the characteristic (pro)electrophilic fragments, which however, in this case, resulted to be insufficient to activate Nrf2, as reported for other ferulic and caffeic derivatives. In this regard, optimal target interaction might play a major role, but further biological investigations are needed to fully clarify the mechanism of Nrf2 activation and the effect on the downstream expression of cytoprotective genes.
SH-SY5Y cells (5 × 106) were seeded in […] dishes and treated for 3 h with 5 μM compounds; afterward, the medium was removed, and cells were washed twice with ice-cold PBS. Cells were subsequently homogenized 15 times using a glass−glass Dounce homogenizer in 0.32 M sucrose, buffered with 20 mM Tris- HCl (pH 7.4), containing 2 mM EDTA, 0.5 mM EGTA, 50 mM β-mercaptoethanol and 20 μg/mL leupeptin, apotrinin and pepstatin. The homogenate was centrifuged at 300× g for 5 min to obtain the nuclear fraction. An aliquot of the nuclear fraction was used for protein assay via the Bradford method, whereas the remaining was boiled for 5 min after dilution with sample buffer and subjected to polyacrylamide gel electrophoresis and immunoblotting, as described.

[4] = system: ROS production in HepG2 cells; assay: Intracellular ROS generation rate (DCF-DA); format: cell-based, human; conditions: 5 µM, antimycin A 10 µM, 30 min
Procedure: Thus, on the basis of the hMAO-B inhibitory potency and on the Nrf2 nuclear translocation results, the most promising compounds 2 and 3 were chosen for the evaluation of their antioxidant activity in the human hepatic HepG2 cells, a valuable cellular system to assess antioxidant properties of the compounds [43, 44]. CAPE and pioglitazone were also tested as reference compounds. HepG2 cells were pre-loaded with dichlorofluorescein diacetate (DCF-DA), a fluorescent probe to detect ROS generation. […] Immediately, antimycin A (10 µM), an inhibitor of the complex III of the mitochondrial electron transport chain, was also added as an ROS inducer. The oxidation rate of DCF, that is, the generation rate of ROS, was detected for 30 min, and for each sample, the corresponding control was also run.
HepG2 cells (human hepatocellular carcinoma) were purchased from the American Type Culture Collection (ATCC HB-8065). Cells were grown in MEM (M0894, Merck Life Sciences S.r.l., Milan, Italy) supplemented with 2.2 g/L NaHCO3 (S5761, Merck Life Sciences S.r.l., Milan, Italy), 100 U/mL penicillin, 100 μg/mL streptomycin and 0.25 μg/mL amphotericin B (A5955, Merck Life Sciences S.r.l., Milan, Italy) and 10% foetal calf serum (F7524, Merck Life Sciences S.r.l., Milan, Italy). Cells were cultured at 37 °C in a humidified atmosphere incubator containing 5% carbon dioxide in air.
The intracellular production of ROS was detected via a fluorometric method using 2′,7′-dichlorofluorescein diacetate (D6883, Merck Life Sciences S.r.l., Milan, Italy) as probe. HepG2 cells (6 × 10^3/well) were seeded into a 96-well culture plate in 200 µL of a complete growth medium and incubated for 48 h in standard conditions. The medium was then removed, and cells were washed with 5 mM of PBS–glucose. Then, cells were loaded with 10 μM of 2′,7′-dichlorofluorescein diacetate in 5 mM of PBS–glucose at 37 °C in the dark for 20 min, washed with 5 mM of PBS–glucose, treated with the test compounds at indicated concentrations in 5 mM of PBS–glucose and then analysed. Fluorescence intensity was recorded for 30 min at λemx = 485 nm and λem = 527 nm, using a Victor X3 Multilabel plate reader (Perkin Elmer). The rate of ROS generation was calculated relative to untreated cells (controls) after subtraction of autofluorescence value. Results were presented as the mean values of at least three independent experiments performed with six replicates.

Compound: COc1cc(/C=C/C(=O)Nc2ccc(CC3SC(=O)NC3=O)cc2)ccc1O (centres unmarked) [Compound 5, (E)-N-(4-((2,4-Dioxothiazolidin-5-yl)methyl)phenyl)-3-(4-hydroxy-3-methoxyphenyl)acrylamide]
melting point: 151 to 152 °C
SI (selectivity index) [1]: 14.2
Ki [1]: 3.3 ± 1 µM
Ki [2]: 47 ± 4 µM
Nrf2 nuclear translocation [3]: promoted Nrf2 translocation at a lower extent

Compound: COC(=O)/C=C/C(=O)Oc1ccc(CC2SC(=O)NC2=O)cc1 (centres unmarked) [Compound 1, 4-((2,4-Dioxothiazolidin-5-yl)methyl)phenyl Methyl Fumarate]
decrease in hMAO-B inhibitory potency in comparison with pioglitazone [1]: 50 times
SI (selectivity index) [1]: 8.0
Ki [1]: 3.14 ± 0.2 µM
Ki [2]: 25 ± 4 µM

Compound: COC(=O)/C=C/C(=O)Oc1ccc(CC2SC(=O)NC2=O)cc1 (centres unmarked) (as salt: fumarate) [Compound 1, 4-((2,4-Dioxothiazolidin-5-yl)methyl)phenyl Methyl Fumarate]
melting point: 150 to 151 °C

Continued, in another order:

melting point: 155 to 156 °C
SI (selectivity index) [1]: 32.3
Ki [1]: 0.99 ± 0.15 µM
Ki [2]: 32 ± 2 µM
Compound: COc1cc(/C=C/C(=O)Oc2ccc(CC3SC(=O)NC3=O)cc2)ccc1O (centres unmarked) [Compound 3, 4-((2,4-Dioxothiazolidin-5-yl)methyl)phenyl (E)-3-(4-hydroxy-3-methoxyphenyl)acrylate]
effect on antimycin A-induced ROS [4]: almost abolish the effect of antimycin A stimulus

melting point: 148 to 149 °C
SI (selectivity index) [1]: 15.6
Ki [1]: 2.5 ± 1 µM
Ki [2]: 39 ± 5 µM
Compound: O=C(/C=C/c1ccc(O)c(O)c1)Nc1ccc(CC2SC(=O)NC2=O)cc1 (centres unmarked) [Compound 4, (E)-3-(3,4-Dihydroxyphenyl)-N-(4-((2,4-dioxothiazolidin-5-yl)methyl)phenyl)acrylamide]
Nrf2 nuclear translocation [3]: promoted Nrf2 translocation at a lower extent

From article PMC10650714, “Double Attack to Oxidative Stress in Neurodegenerative Disorders: MAO-B and Nrf2 as Elected Targets” (Molecules, 2023)
